# Measured values: patent US6346620B1, “Methods for preparation of 2-(4-(4-(4,5-dichloro-2-methylimidazol-1-yl)butyl)-1-piperazinyl)-5-fluoropyrimidine and salts thereof” (Laboratories del Dr. Esteve S.A., priority 1997, dated 2002)
# pKi: −log10 of the molar value.
# What was measured:
# [1] = tested on: nausea induced by cisplatin; assay: Antiemetic activity: nausea/vomiting induced by cisplatin in ferrets; type: in vivo; conditions: ferret; for Number of episodes of nausea/vomiting: cisplatin 10 mg/kg i.v., 240 min observation
# Description: (§1) The compounds obtained in the invention are studied with regard to their effects on nausea in ferrets according to a method described by Costall et al. (Neuropharmacology, 1986, 25, 959-961). Ferrets of both sexes (0.7-1.4 kg) are individually housed at 21±1° C. and fed normally. The compound of the example or a vehicle is subsequently administered to them subcutaneously as pretreatment 15 minutes before the administration of copper sulfate (CuSO4.5H2O; 100 mg/kg by the intragastric route) or cisplatin (10 mg/kg i.v. by means of a permanent jugular cannula). The animals are observed at the beginning of vomiting and then for 30 minutes (copper sulfate) or 240 minutes (cisplatin). Vomiting is characterized by rhythmic abdominal contractions, either associated with the expulsion of solid or liquid matter (vomit) or not associated with the passage of matter via the mouth (nausea). The number of episodes and nausea or vomiting are recorded.
# gastric acid secretion = assay: Inhibitory activity with regard to gastric acid secretion (Shay procedure); type: in vivo; conditions: Rattus norvegicus, intraduodenal; male Wistar rats, pylorus ligation, i.d., 2 hours; read-out: ED50 (inhibition of gastric acid secretion)
# Description: This activity is determined by means of the Shay procedure (H. Shay et al., Gastroenterology, 1945, 5, 43; Visscher et al., J. Pharmac. Exp. Ther., 1954, 110, 188).
# Male Wistar rats weighing from 200 to 250 g are used in this test, which rats are deprived of food up to the day preceding the test, with free access to water. Batches of 4 animals each are used, at least.
# The rats are anesthetized with ethyl ether, a laparotomy is performed on them and their pylori are tied, and then an abdominal incision is made. The products are administered intraduodenally (i.d.) before suturing the abdominal incision. The dose administered in the first test is 40 mg/kg and then the median effective dose (ED50) is determined. The vehicle used is gum arabic at 5% w/v in doubly-distilled water.
# Two hours after ligating the pylori, the rats are sacrificed by prolonged anesthesia with ethyl ether and the volume of gastric juice is measured. The total acidity is determined by means of a pH meter equipped with an automatic burette. For each product and for each dose tested, the percentage of inhibition of gastric acid secretion is determined with respect to a reference batch.
# 5HT1A serotonin receptor = target: T1, 5HT1A serotonin receptor (Rattus norvegicus, UniProt P19327); assay: Binding to the 5HT1A serotonin receptor (rat hippocampus homogenate, [3H]-8-HO-DPAT); conditions: 15 minutes at 37° C., read-out: Ki (inhibition constant)
# T1 construct: A rat hippocampus homogenate is used; from tissue; host or cells: rat hippocampus homogenate
# T1 sequence (P19327 1-422): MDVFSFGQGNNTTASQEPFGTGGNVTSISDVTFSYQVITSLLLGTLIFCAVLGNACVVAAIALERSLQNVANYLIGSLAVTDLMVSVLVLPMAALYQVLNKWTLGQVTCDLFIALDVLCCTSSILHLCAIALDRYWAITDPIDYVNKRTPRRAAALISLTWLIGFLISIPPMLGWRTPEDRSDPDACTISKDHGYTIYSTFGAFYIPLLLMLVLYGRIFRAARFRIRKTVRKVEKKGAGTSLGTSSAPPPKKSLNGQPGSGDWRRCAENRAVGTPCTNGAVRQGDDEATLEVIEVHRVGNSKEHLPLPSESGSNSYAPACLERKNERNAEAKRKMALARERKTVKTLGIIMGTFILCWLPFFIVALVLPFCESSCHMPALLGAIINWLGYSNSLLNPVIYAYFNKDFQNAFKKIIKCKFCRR
# Description: A rat hippocampus homogenate is used, a modification of the method of S. J. Peroutka (Neurochem., 1986, 47, 529) being followed. [^3H]-8-HO-DPAT is used as radioligand and serotonin is used to measure the nonspecific binding. The incubation time is 15 minutes at a temperature of 37° C. The radioligand bonded to the protein is separated by filtration through glass fiber filters and the radioactivity retained on the filter is determined by liquid scintillation. The inhibitIon constant (Ki, nM) is calculated by nonlinear regression analysis using the EBDA/LIGAND program (Munson and Rodbard, Analytical Biochemistry, 1980, 107, 220).
# [2] = tested on: nausea induced by copper sulfate; assay: Antiemetic activity: nausea/vomiting induced by copper sulfate in ferrets; type: in vivo; conditions: ferret; for Number of episodes of nausea/vomiting: copper sulfate 100 mg/kg intragastric, 30 min observation
# Description: as §1
# [3] = tested on: nausea caused by the movement (travel sickness); assay: Travel sickness in the shrew (Suncus murinus); type: in vivo; conditions: for Number of episodes of nausea/vomiting: motion 1 hertz 4 cm for 20 min
# Excerpt: The compound of Example 3 is studied with regard to its effect on travel sickness, (vertigo) induced in, Suncus murinus according to the method described by N. Matsuki et al. (“Mechanisms and Control of Emesis”, John Libbey Emotex, 1992, 233, 323-329). Males of the species Suncus murinus weighing 58-72 grams are housed in groups of 3 and are allowed free access to solid food and to water. One hour before the test, they are presented with cat food in their housing cage. At the beginning of the test, the animals receive the treatment with the test product by the i.p. route. After 30 minutes, they are placed individually in the test boxes (15×15×10 cm). The boxes are connected to a motor which displaces them over several wheels forward and backward with a frequency which induces nausea in them (travel sickness). This frequency is 1 hertz with an amplitude of displacement of 4 cm. The animals are left in the test boxes for 30 minutes, in order for them to become used to their surroundings, and then the active movement of the cages is begun for 20 minutes, in order to determine the presence or the absence of nausea (without passage of matter from the digestive tract) and of vomiting (with passage of matter from the digestive tract).
# [4] = tested on: conditioned avoidance response; assay: Test of conditioned avoidance response (C.A.R.); type: in vivo; conditions: Rattus norvegicus, po; male Wistar rats, p.o., 45 minutes before the study; read-out: ED50 (suppression of conditioned avoidance response)
# Description: In this test, use is made of male Wistar rats weighing 200 g trained to leap a barrier in a Letica shuttle box (references LI 910 and LI 2700) during the 30 seconds which follow their introduction into the box. Products having an anxiolytic or tranquilizing activity suppress the conditioned avoidance response. Training: first day, 11 tests at intervals of 3 minutes. Electric shock in the paws at 30 seconds (5 mA, 0.1 s, 10 s). Second and third days: two daily tests, only with the selected rats {some of the grades of the first day (except the first test) >14}. Day of the test: groups formed by the selected rats. Oral administration of the product or vehicle 45 minutes before the beginning of the study.
smiles,measurement,setting,value
"Cc1nc(Cl)c(Cl)n1CCCCN1CCN(c2ncc(F)cn2)CC1.O=C(O)CC(O)(CC(=O)O)C(=O)O [Example 3, 2-{4-[4-(4,5-dichloro-2-methylimidazol-1-yl)butyl]piperazin-1-yl}-5-fluoropyrimidine citrate]",Number of episodes of nausea/vomiting,[1]; 0.001 mg/kg s.c.,13.8 ± 2.4 (NS)
same,Number of episodes of nausea/vomiting,[1]; 0.01 mg/kg s.c.,6.5 ± 3.1 (*)
same,Number of episodes of nausea/vomiting,[1]; 0.1 mg/kg s.c.,3.1 ± 2.9 (*)
same,Number of episodes of nausea/vomiting,[1]; 1 mg/kg s.c.,3.0 ± 2.0 (*)
same,Effect on nausea induced by cisplatin (in words),[1]; s.c.,opposing the nausea induced by cisplatin
same,ED50,gastric acid secretion,1.9 mg/kg
same,pKi,5HT1A serotonin receptor,7.71
same,Number of episodes of nausea/vomiting,[2]; 0.001 mg/kg s.c.,7.4 ± 1.2 (NS)
same,Number of episodes of nausea/vomiting,[2]; 0.01 mg/kg s.c.,3.2 ± 0.6 (*)
same,Number of episodes of nausea/vomiting,[2]; 0.1 mg/kg s.c.,1.0 ± 0.2 (*)
same,Number of episodes of nausea/vomiting,[2]; 1 mg/kg s.c.,1.7 ± 0.3 (*)
same,Effect on nausea induced by copper sulfate (in words),[2]; s.c.,capable of altering the nausea induced by copper sulfate
same,Effect on nausea caused by the movement (travel sickness) (in words),[3]; doses of 0.01 to 10 mg/kg i.p.,markedly inhibits the nausea caused by the movement (travel sickness)
same,Number of episodes of nausea/vomiting,[3]; 0.001 mg/kg i.p.,8.38 ± 1.41 (NS)
same,Number of episodes of nausea/vomiting,[3]; 0.01 mg/kg i.p.,0.33 ± 0.21 (*)
same,Number of episodes of nausea/vomiting,[3]; 0.1 mg/kg i.p.,2.17 ± 0.83 (*)
same,Number of episodes of nausea/vomiting,[3]; 1.0 mg/kg i.p.,0.33 ± 0.21 (*)
same,Number of episodes of nausea/vomiting,[3]; 10.0 mg/kg i.p.,0 ± 0 (*)
same,ED50,[4],9.7 mg/kg
